Counter-ions that a name gives are not always drawn. Like-named read-outs stand apart in the source and are kept apart here.
How the values were obtained:
[1] = test system: H5N1; format: cell-based, Influenza A virus A/Duck/Guangdong/99 (H5N1); settings: 60 μM
[2] = test system: H9N2; experiment: microbe, parasite or virus in culture; format: cell-based, Influenza A virus A/Chicken/Guangdong/96 (H9N2); settings: Influenza A virus, H9N2, A549, read-out: IC50 (H9N2)
[3] = test system: PR8 (H1N1); experiment: microbe, parasite or virus in culture; format: cell-based, Influenza A virus A/Puerto Rico/8/34 (PR8); settings: Influenza A virus, A549, read-out: IC50 (PR8 (H1N1))
[4] = MTT cytotoxicity assay on A549 cells; settings: human
[5] = test system: A549 cells; experiment: MTT cytotoxicity assay on A549 cells; settings: 48 or 72 h treatment, MTT
[6] = MTT cytotoxicity assay on MDCK cells; settings: dog
[7] = test system: MDCK cells; experiment: MTT cytotoxicity assay on MDCK cells; settings: 48 or 72 h treatment, MTT
[8] = test system: PR8 (H1N1); format: cell-based, Influenza A virus A/Puerto Rico/8/34 (PR8)
[9] = test system: influenza A virus (H5N1, H9N2, H1N1); experiment: microbe, parasite or virus in culture; format: cell-based; settings: for IC50: Influenza A virus, read-out: IC50 range over three IAV subtypes
[10] = test system: H5N1; format: cell-based, Influenza A virus A/Duck/Guangdong/99 (H5N1)
[11] = test system: H5N1 virus; format: cell-based, Influenza A virus A/Duck/Guangdong/99 (H5N1)
[12] = test system: nuclear export of viral RNP complexes (H5N1); format: cell-based, Influenza A virus A/Duck/Guangdong/99 (H5N1)
[13] = test system: PR8 (H1N1); experiment: microbe, parasite or virus in culture; format: cell-based, Influenza A virus A/Puerto Rico/8/34 (PR8); settings: Influenza A virus, MDCK, read-out: IC50 (PR8 (H1N1))
[14] = test system: H5N1; experiment: microbe, parasite or virus in culture; format: cell-based, Influenza A virus A/Duck/Guangdong/99 (H5N1); settings: Influenza A virus, H5N1, A549, read-out: IC50 (H5N1)
[15] = test system: H9N2; experiment: microbe, parasite or virus in culture; format: cell-based, Influenza A virus A/Chicken/Guangdong/96 (H9N2); settings: Influenza A virus, H9N2, MDCK, read-out: IC50 (H9N2)
[16] = test system: H5N1; experiment: microbe, parasite or virus in culture; format: cell-based, Influenza A virus A/Duck/Guangdong/99 (H5N1); settings: Influenza A virus, H5N1, MDCK, read-out: IC50 (H5N1)
[17] = test system: H9N2 virus; format: cell-based, Influenza A virus A/Chicken/Guangdong/96 (H9N2)

SMILES | IC50 [2] | IC50 [3] | CC50 [4] | CC50 [6] | IC50 [9] | nuclear export of vRNP complexes [12] | IC50 [13] | IC50 [14] | IC50 [15] | IC50 [16] | further results
C[C@H](CCC(=O)O)[C@H]1CC[C@H]2[C@@H]3[C@H](O)C[C@@H]4C[C@H](O)CC[C@]4(C)[C@H]3CC[C@]12C [CDCA, Chenodeoxycholic acid] | 11.5 ± 1.7 µM | 7.7 ± 0.7 µM | 372 ± 41.2 µM | 121 ± 9.7 µM | 5.5 to 11.5 µM | inhibited | 7.2 ± 0.7 µM | 8.2 ± 1.2 µM | 5.5 ± 0.7 µM | 6.5 ± 0.5 µM | decrease of progeny virus yield, post-treatment [1]: more than 90%; progeny virus yield and viral NP production, pretreatment [1]: did not reduce; virus replication, cotreatment [1]: did not affect; concentrations with no obvious cytotoxicity [5]: ≤ 125 µM; concentrations with no obvious cytotoxicity [7]: ≤ 62.5 µM; anti-IAV activity, CPE (PR8 (H1N1)) [8]: reduced CPE; progeny virus titers [9]: significantly inhibited; inhibition of virus replication (NP expression), added 4–6 and 6–8 hpi ([10]; 60 μM): more significant inhibition; H5N1 replication (CPE, NP expression) [11]: significantly inhibited; early NP localization events (cytosol to nucleus translocation) [12]: did not affect; anti-IAV activity, CPE (H9N2) [17]: reduced CPE
C[C@H](CCC(=O)O)[C@H]1CC[C@H]2[C@@H]3C[C@H](O)[C@@H]4C[C@H](O)CC[C@]4(C)[C@H]3CC[C@]12C [HDCA, hyodeoxycholic acid] | 53 ± 6.5 µM | 73.7 ± 6.7 µM | 486 ± 55 µM | 414 ± 33.7 µM | 31 to 73.7 µM | – | 43.5 ± 2.7 µM | 60 ± 5.5 µM | 31 ± 2.2 µM | 41.2 ± 3.5 µM | –
CCC(=C/[C@H](C)C/C=C/C(C)=C/[C@@H](C)C(=O)[C@@H](C)[C@H](O)[C@@H](C)C/C(C)=C/C(=O)O)/C=C/[C@@H]1OC(=O)C=C[C@@H]1C [Leptomycin B (LMB), Leptomycin B] | – | – | – | – | – | efficiently blocked | – | – | – | – | –
C[C@H](CCC(=O)O)[C@H]1CC[C@H]2[C@@H]3[C@@H](O)C[C@@H]4C[C@H](O)CC[C@]4(C)[C@H]3CC[C@]12C [UDCA, ursodeoxycholic acid] | 58.7 ± 4.5 µM | 43 ± 4.5 µM | 815 ± 49.2 µM | 596 ± 53 µM | 31 to 73.7 µM | – | 56.2 ± 5 µM | 34.2 ± 3.7 µM | 36.7 ± 3.5 µM | 47.2 ± 3.2 µM | –
NC(=O)c1ncn([C@@H]2O[C@H](CO)[C@@H](O)[C@H]2O)n1 [ribavirin, Ribavirin hydrochloride] | – | – | – | – | – | did not block | – | – | – | – | reduction of progeny virus production relative to 60 μM CDCA ([9]; 90 μM): slightly more potent; IAV inhibition (NP expression), added 6–8 hpi [10]: no inhibition; IAV inhibition (NP expression), added before 6 hpi [10]: much better IAV inhibition; inhibition of H5N1 infection (CPE, NP expression) ([11]; 90 μM): significant inhibition

Reference: article PMC6321071, “Chenodeoxycholic Acid from Bile Inhibits Influenza A Virus Replication via Blocking Nuclear Export of Viral Ribonucleoprotein Complexes” (Molecules, 2018)
